We go through 1 molecule from patent US20040091460A1, “Preparation of spheroids” (priority 2000, published 2004).

“Also recorded” adds a separate entry of the source.

What all share (type): cell-based
In data set [1] the test system is rat liver spheroids. Briefly: Albumin synthesis of liver spheroids after GalN exposure (BCG albumin kit, medium). To be noted: 24 hr exposure. The method, then:
(§1) Liver spheroids were prepared from the liver of male Wistar rats by a two-step collagenase perfusion method described by Seglen P. O. ((1976). Preparation of isolated rat liver cells. Methods Cell. Biol. 13, 29-38) and modified by Lazar, A.; Peshwa, M. V., Wu, F. J., Chi, C. M., Cerra, F. B., and Hu, W. S. (1995). Extended liver-specific functions of procirne hepatocyte spheroids entrapped in collagen gel. In Vitro Cell Biol Anim. 31, 340-346). Viability of the isolated liver cells was determined by tyrpan blue dye exclusion i.e. an aliquot of isolated liver cells was mixed with an equal volume of trypan blue dye (1.0% w/v in isotonic saline) and incubated at room temperature for a minimum period of 5 minutes. Only isolated liver cell preparations with viability above 80% were used to prepare liver spheroids. The cell suspension was diluted with culture medium (hepatocyte medium supplemented with 10% FCS, 200 mM L-glutamine, 2 ng/ml insulin, 100 U/ml penicillin and 100 μg/ml streptomycin sulfate) to give a cell density of 5×10^5 cells/ml. The diluted cell suspension was dispersed into 6-well plates, 3 ml/well. […]
Albumin concentration in the medium was determined by Albumin Reagent Kit (BCG, Sigma). […] Absorbance was read on a microplate reader (Multiscan RC, Labsystems) at 630 nm.

Data set [2] deals with rat liver spheroids. Kind of data set: Total protein content of rat liver spheroids after GalN exposure (Bradford). To be noted: 24 hr exposure, vs control. As to the method:
as §1, with “spheroids.” for “spheroids. The cell suspension was diluted with culture medium (hepatocyte medium supplemented with 10% FCS, 200 mM L-glutamine, 2 ng/ml insulin, 100 U/ml penicillin and 100 μg/ml streptomycin sulfate) to give a cell density of 5×10^5 cells/ml. The diluted cell suspension was dispersed into 6-well plates, 3 ml/well.”
Spheroids were homogenized in homogenisation buffer containing NaH2PO42H2O, 2 mM; Na2HPO4, 2 mM; EDTA, 0.5 mM; and NaCl, 145 mM. Total protein was assessed according to the method developed by Bradford (1976). […] The protein content was determined by Micro Protein Kit (Sigma, Cat. No. 610-A). […] Absorbance was read on a microplate reader (Multiscan RC, Labsystem) at 595 nm.

The subject of data set [3] is rat liver spheroids. Kind of data set: Glutathione content of liver spheroids after GalN exposure (fluorimetric OPT method). The following applies: 24 hr exposure. The method, then:
as §1, with “cells/ml.” for “cells/ml. The diluted cell suspension was dispersed into 6-well plates, 3 ml/well.”
Glutathione levels in spheroids were determined by the fluorimetric method (Hissin P. J., and Hilf (1976). A fluorimetric method for the determination of oxidised and reduced glutathione in tissues. Anal. Biochem. 74, 214-226). […] Absorbance was read on a fluorimeter at excitation wavelength 350 nm and emission wavelength 420 nm.

Data set [4] relates to rat liver spheroids. Kind of data set: Urea synthesis of liver spheroids after GalN exposure (Urea Nitrogen Kit, medium). As to the method: as §1, with “spheroids.” for “spheroids. The cell suspension was diluted with culture medium (hepatocyte medium supplemented with 10% FCS, 200 mM L-glutamine, 2 ng/ml insulin, 100 U/ml penicillin and 100 μg/ml streptomycin sulfate) to give a cell density of 5×10^5 cells/ml. The diluted cell suspension was dispersed into 6-well plates, 3 ml/well.”
Urea concentration in the media was determined using a Urea Nitrogen Kit (Cat. 640-A, Sigma). The method was modified in order to be suitable for a 96-well plate format and assays using a microplate reader. […] Total ammonium nitrogen of each sample was determined by adding 25 μl urease solution to each well followed by 10 μl of diluted medium. […] A blue colour developed and the absorbance was read on a microplate reader (Multiscan RC, Labsystems) at 590 nm. Free non-urea nitrogen was determined by adding 25 μl PBS without urease followed by 10 μl medium. […]

The test system of data set [5] is rat liver spheroids. Kind of data set: Lactate dehydrogenase (LDH) leakage of liver spheroids after GalN exposure. As to the method: as §1, with “ml/well. The plates were incubated at 37° C., in a 5% CO2 incubator on a gyrotatory shaker (New Brunswick) at an initial rotation speed of 85 rpm for the first 24 hr and 77 rpm thereafter. The plates were rotated at this speed for the duration of the study (up to 45 days, but typically 2-10 days). 1.5 ml of old medium was replaced with 2.0 ml fresh medium for each well every other day. Media exchange was carried out over the duration of the study (up to 45 days, but typically 2-10 days).” for “ml/well.”
LDH in the media was assayed using the method developed by Korzeniewski and Callewaert (Korzeniwski, C., and Callewaert, D. M. (1983). An enzyme-release assay for natural cytotoxicity. J Immun. Meth. 64, 313-320). […] The resultant absorbance at 490 mn was monitored for 15 min, at 10 sec intervals on a microplate reader (Multiscan RC, Labsystem).

For data set [6], the system named is rat liver spheroids. Kind of data set: Intoxification of liver spheroids: spheroid damage / functional change observed. As to the method: as §1, with “ml/well. The plates were incubated at 37° C., in a 5% CO2 incubator on a gyrotatory shaker (New Brunswick) at an initial rotation speed of 85 rpm for the first 24 hr and 77 rpm thereafter.” for “ml/well.”
[7] abbreviates: 0-40 mM GalN, trend over concentration.

In the case of `N[C@H]1C(O)O[C@H](CO)[C@H](O)[C@@H]1O` (stereo partly drawn) [GalN, D-Galactosamine], the albumin synthesis entry in the data set on rat liver spheroids [1] (setting [7]) is “concentration-dependent decrease”; with rat liver spheroids [1] (40 mM GalN, vs control, p<0.05), “decrease was significant”. Besides, the “total protein content of spheroids” value in the data set on rat liver spheroids [2] (20 mM or lower GalN) is “not affected; also recorded: did not decrease”; in the data set with rat liver spheroids [2] (40 mM GalN, p<0.05), “significantly decreased”. Besides, the glutathione content result is listed as “did not decrease” in the data set with rat liver spheroids [3] (20 mM and lower GalN); “significantly decreased” in the data set on rat liver spheroids [3] (40 mM GalN, p<0.05). The urea synthesis entry in the data set with rat liver spheroids [4] (0-40 mM GalN, 24 hr after exposure, trend over concentration) is given as “concentration-dependent increase”. Further, the “synthetic rates of urea” value in the data set with rat liver spheroids [4] (10 mM or higher GalN, 24 hr, vs control, p<0.05) was “significantly higher”. In addition, the LDH leakage result in the data set with rat liver spheroids [5] (setting [7]) is “concentration-dependent increase”; in the data set on rat liver spheroids [5] (10 mM GalN, 24 hr, p<0.05), “significantly increased”; in the data set with rat liver spheroids [5] (20 and 40 mM GalN, 4 hours after exposure, vs control, p<0.05) it was “significant increase”. Moreover, in the data set with rat liver spheroids [6] (20 mM GalN), the “functional change of liver spheroids” value is on record as “caused a functional change”. The “spheroid damage / cell death” value in the data set on rat liver spheroids [6] (40 mM GalN (highest concentration), 24 hr exposure) was “caused acute cell death”.
